The record followed here is ChEMBL document CHEMBL1201862, “PubChem BioAssay data set” (2004).

Among the test systems are OVCAR-8; A498; K562; SF-295; ACHN; SK-MEL-2; HCC 2998; SF-268; SK-MEL-5; UO-31; KM12; OVCAR-5; Malme-3M; HCT-15; NCI/ADR-RES; OVCAR-4; HCT-116; SNB-19; SK-MEL-28; LOX IMVI.
Assay in all cases: growth of human tumour cells (NCI), 48 h

Molecules are shown by their SMILES.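 Test compounds were applied to cells in 96-well plates for 48 hours at 5 doses. At the GI50, growth is halved.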 Active and inactive are the calls of the source. No stated cut-off is given here; in the data, active = GI50 up to about 1.1 µM and inactive = higher. A value given as a limit tells only on which side of the number the result lay.

In the case of `Clc1cc2nnn(C3CCCCO3)c2cc1Cl` (stereo not given), the GI50 with OVCAR-8 is > 100 µM (inactive); in the experiment on A498, 36.1 µM (inactive); with K562 it was > 100 µM (inactive); in the experiment on SF-295, > 100 µM (inactive); with ACHN, > 100 µM (inactive); in the experiment on SK-MEL-2, > 100 µM (inactive). The GI50 is > 100 µM (inactive) with HCC 2998; 42.3 µM (inactive) in the experiment with SF-268; 38.7 µM (inactive) in the experiment on SK-MEL-5; 30.7 µM (inactive) in the experiment on UO-31; 86.3 µM (inactive) in the experiment on KM12; > 100 µM (inactive) in the experiment on OVCAR-5. The GI50 was > 100 µM (inactive) in the experiment on Malme-3M; 96.6 µM with HCT-15; 48.3 µM (inactive) in the experiment with NCI/ADR-RES; > 100 µM (inactive) with OVCAR-4; 79.8 µM (inactive) with HCT-116; > 100 µM (inactive) in the experiment on SNB-19.

In the case of `COc1cc(S(=O)(=O)Nc2nc(-c3ccc(N4C(=O)/C(=C/c5ccccc5[N+](=O)[O-])N=C4c4ccccc4)cc3)cs2)ccc1Cl`, the GI50 with OVCAR-8 is > 100 µM (inactive); in the experiment with A498, > 100 µM (inactive); with K562 it was 61.5 µM (inactive); in the experiment on SF-295 it was > 100 µM (inactive); in the experiment with ACHN, > 100 µM (inactive); in the experiment on SK-MEL-2, 33.3 µM (inactive). For the same compound, the GI50 was 22.6 µM (inactive) with SF-268; 48.9 µM (inactive) with SK-MEL-5; > 100 µM (inactive) in the experiment on UO-31; 73.1 µM (inactive) in the experiment on KM12; > 100 µM (inactive) with OVCAR-5; > 100 µM (inactive) in the experiment on Malme-3M. The GI50 in the experiment with HCT-15 was above 100 µM; in the experiment on NCI/ADR-RES, > 100 µM (inactive); in the experiment on OVCAR-4, > 100 µM (inactive); in the experiment on HCT-116, 74 µM (inactive); in the experiment on SK-MEL-28 it was > 100 µM (inactive); in the experiment with LOX IMVI, 50.2 µM (inactive). The GI50 in the experiment with SNB-19 was 89.9 µM (inactive).

On to `CCOC(=O)N1CCNCCN(C(=O)OCC)CCNCC1`, for which the GI50 in the experiment with OVCAR-8, in the experiment with A498, with K562, in the experiment with SF-295, with ACHN and in the experiment on SK-MEL-2 was > 100 µM (inactive) in each case. For the same compound, the GI50 with HCC 2998 was > 100 µM (inactive); in the experiment with SF-268, > 100 µM (inactive); with SK-MEL-5, > 100 µM (inactive); in the experiment on UO-31, > 100 µM (inactive); in the experiment on OVCAR-5 it was > 100 µM (inactive); with HCT-15, above 100 µM. Further, the GI50 in the experiment with NCI/ADR-RES, in the experiment on OVCAR-4, in the experiment on HCT-116, in the experiment on SK-MEL-28, in the experiment on LOX IMVI and with SNB-19 was > 100 µM (inactive) throughout.

With `CCOC(=O)N1CCN(c2nc(C)n(-c3ccccc3)c(=S)c2C#N)CC1`, the GI50 in the experiment with OVCAR-8 was 50.2 µM (inactive); with A498, > 100 µM (inactive); with K562, > 50 µM (inactive); in the experiment with SF-295, > 66.4 µM (inactive); in the experiment with ACHN, > 65 µM (inactive); in the experiment with SK-MEL-2 it was > 76.4 µM (inactive). Besides, the GI50 was > 100 µM (inactive) with HCC 2998; 63.1 µM (inactive) in the experiment on SF-268; > 100 µM (inactive) in the experiment on SK-MEL-5; > 48 µM (inactive) in the experiment with UO-31; > 83.8 µM (inactive) in the experiment with KM12; > 100 µM (inactive) in the experiment with OVCAR-5. Besides, the GI50 in the experiment with HCT-15 is above 55.6 µM; with NCI/ADR-RES, 30 µM (inactive); in the experiment with OVCAR-4, 44.1 µM (inactive); in the experiment with HCT-116, > 68.2 µM (inactive); with SK-MEL-28 it was 61 µM (inactive); in the experiment on LOX IMVI, > 61.9 µM (inactive). In addition, the GI50 in the experiment with SNB-19 was > 78.2 µM (inactive).

Regarding `S=C(NC/C(Br)=C/Br)Nc1cccc2ccccc12`, the GI50 in the experiment on OVCAR-8 was 27.6 µM (inactive); in the experiment on A498, 33.5 µM (inactive); in the experiment with K562, 11.7 µM (inactive); with SF-295 it was 33.3 µM (inactive); in the experiment with ACHN it was 28.9 µM (inactive); in the experiment on SK-MEL-2, 20.4 µM (inactive). Also, the GI50 was 16.4 µM (inactive) in the experiment on SK-MEL-5; 20.9 µM (inactive) in the experiment with UO-31; 33.6 µM (inactive) in the experiment on OVCAR-5; 28.9 µM (inactive) in the experiment on Malme-3M; 31.3 µM in the experiment on HCT-15; 19 µM (inactive) in the experiment with NCI/ADR-RES. The GI50 is 30.3 µM (inactive) in the experiment on OVCAR-4, 24.2 µM (inactive) in the experiment on HCT-116, 24.8 µM (inactive) in the experiment with LOX IMVI and 34 µM (inactive) in the experiment on SNB-19.

On to `C[C@]12CCC(N3CCCC3)CC1=CC[C@@H]1[C@@H]2CC[C@]2(C)C(O)[C@H](n3ccnc3)C[C@@H]12` (stereo not given in full), for which the GI50 with OVCAR-8 was 61.2 µM (inactive); in the experiment on A498, > 100 µM (inactive); with K562 it was 27.2 µM (inactive); with SF-295 it was 35.2 µM (inactive); in the experiment on ACHN, 36.7 µM (inactive); in the experiment on SK-MEL-2, 41.9 µM (inactive). The GI50 is > 10 µM (inactive) with SF-268; 53 µM (inactive) in the experiment with SK-MEL-5; 44.6 µM (inactive) with UO-31; > 10 µM (inactive) with KM12; 53.8 µM (inactive) with OVCAR-5; 20.9 µM in the experiment on HCT-15. Further, the GI50 is > 100 µM (inactive) in the experiment on NCI/ADR-RES; 73.6 µM (inactive) in the experiment with OVCAR-4; 38.1 µM (inactive) with HCT-116; 26.1 µM (inactive) in the experiment on SK-MEL-28; 34.4 µM (inactive) in the experiment on LOX IMVI; > 100 µM (inactive) in the experiment on SNB-19.

Consider `Cn1c(=O)c2nc(SCCN3CCOCC3)[nH]c2n(C)c1=S`, for which the GI50 in the experiment with OVCAR-8, in the experiment on A498, with K562, in the experiment with SF-295, with ACHN and in the experiment with SK-MEL-2 was > 100 µM (inactive) throughout. The GI50 in the experiment on SF-268, in the experiment with SK-MEL-5, in the experiment with UO-31, with KM12, in the experiment on OVCAR-5 and in the experiment on Malme-3M was > 100 µM (inactive) each time. The GI50 was above 100 µM in the experiment with HCT-15; > 100 µM (inactive) with NCI/ADR-RES; > 100 µM (inactive) with OVCAR-4; > 100 µM (inactive) in the experiment with HCT-116; > 100 µM (inactive) with SK-MEL-28; > 100 µM (inactive) with LOX IMVI. For the same compound, the GI50 with SNB-19 is > 100 µM (inactive).

Take `COC(=O)N1C[C@@]2(C=CC3(CC2)OCCO3)c2ccccc21`: the GI50 in the experiment on OVCAR-8 was 39.5 µM (inactive); in the experiment on A498, > 100 µM (inactive); with K562, 48 µM (inactive); in the experiment on SF-295 it was > 100 µM (inactive); in the experiment with ACHN, > 100 µM (inactive); in the experiment with SK-MEL-2, > 100 µM (inactive). Moreover, the GI50 is > 100 µM (inactive) in the experiment with HCC 2998; 81.7 µM (inactive) in the experiment on SK-MEL-5; > 100 µM (inactive) with UO-31; 37.8 µM (inactive) in the experiment on KM12; > 100 µM (inactive) with OVCAR-5; 57.3 µM in the experiment on HCT-15. The GI50 in the experiment with NCI/ADR-RES was 28.6 µM (inactive); in the experiment on OVCAR-4 it was > 100 µM (inactive); with HCT-116 it was > 100 µM (inactive); in the experiment with SK-MEL-28, 67.1 µM (inactive); in the experiment on LOX IMVI, > 100 µM (inactive); in the experiment on SNB-19, > 100 µM (inactive).

Consider `COC(=O)C1(Cc2ccc3c(c2)CCC3)Cc2ccc3c(c2C1O)CCC3` (stereo not given), for which the GI50 was 17.3 µM (inactive) in the experiment with OVCAR-8; 11.7 µM (inactive) in the experiment with A498; > 100 µM (inactive) in the experiment with K562; 17.5 µM (inactive) in the experiment on SF-295; 13 µM (inactive) in the experiment on ACHN; 17.1 µM (inactive) with HCC 2998. Moreover, the GI50 in the experiment on SF-268 is 21 µM (inactive); with SK-MEL-5 it was 10.2 µM (inactive); in the experiment with UO-31, 10.7 µM (inactive); in the experiment on KM12, 14.8 µM (inactive); in the experiment with Malme-3M, 12.2 µM (inactive); in the experiment with HCT-15 it was above 10 µM. In addition, the GI50 with NCI/ADR-RES is 12.6 µM (inactive); in the experiment with OVCAR-4, 5.79 µM (inactive); with HCT-116 it was 11.8 µM (inactive); in the experiment with SK-MEL-28, 14.7 µM (inactive); with LOX IMVI, 12.6 µM (inactive).

Regarding `CCOCc1nc2c(OC)c(-c3nc4ccc(N5CCN(C)CC5)cc4[nH]3)cc(OC)c2[nH]1`, the GI50 with OVCAR-8 is 80.2 µM (inactive); with A498, 37 µM (inactive); in the experiment with K562, 35.6 µM (inactive); in the experiment with SF-295 it was 21 µM (inactive); with ACHN it was 57.4 µM (inactive); in the experiment on SK-MEL-2 it was 20.6 µM (inactive). Besides, the GI50 was 63.4 µM (inactive) in the experiment on SF-268; 17.5 µM (inactive) in the experiment with SK-MEL-5; 22.1 µM (inactive) in the experiment with UO-31; 31.6 µM (inactive) with KM12; 83.6 µM (inactive) in the experiment on OVCAR-5; 18 µM (inactive) in the experiment on Malme-3M. Besides, the GI50 in the experiment on HCT-15 was 44.2 µM; with NCI/ADR-RES, > 100 µM (inactive); in the experiment with OVCAR-4 it was 71.8 µM (inactive); in the experiment on HCT-116 it was 34 µM (inactive); in the experiment on SK-MEL-28 it was 18.6 µM (inactive); in the experiment on LOX IMVI it was 21.1 µM (inactive). The GI50 with SNB-19 was 44.4 µM (inactive).

Regarding `COC(=O)Nc1nc2cc(S(=O)(=O)Nc3ccccn3)ccc2[nH]1`, the GI50 was 46.5 µM (inactive) in the experiment on OVCAR-8; 61.1 µM (inactive) with A498; 25.7 µM (inactive) with K562; 49.7 µM (inactive) with SF-295; 63 µM (inactive) in the experiment with ACHN; > 100 µM (inactive) in the experiment with SK-MEL-2. In addition, the GI50 in the experiment with SF-268 was 72.6 µM (inactive); with SK-MEL-5, 42.1 µM (inactive); in the experiment on UO-31, 76 µM (inactive); in the experiment with KM12 it was 32.1 µM (inactive); with OVCAR-5, > 100 µM (inactive); in the experiment on Malme-3M, 58.5 µM (inactive). The GI50 in the experiment on HCT-15 was 19.8 µM; with NCI/ADR-RES it was 34.1 µM (inactive); in the experiment on OVCAR-4, 54.1 µM (inactive); with HCT-116, 49.9 µM (inactive); in the experiment on SK-MEL-28, 14.4 µM (inactive); in the experiment on LOX IMVI, 51.8 µM (inactive). For the same compound, in the experiment on SNB-19, the GI50 is 64.4 µM (inactive).
